| Structure (SMILES) | melting point [°C] |
| --- | --- |
| CC(C)N1CCN(c2ccc(Nc3cc(-c4ccc5c(CCO)cn(C)c5c4)c(Cl)n4ccnc34)nc2)CC1 | 181 |
| COCC1=C(c2ccccc2)C(=O)N(C(C)(C)C(=O)OC(C)(C)C)CO1 | 65 to 67 |
| Cc1ccc(S(=O)(=O)N(c2ccc(F)cc2[N+](=O)[O-])C(C)C)cc1 | 129 to 130 |
| CCOC(CC)=NS(=O)(=O)c1nc(-c2ccccc2)ns1 | 98 to 100 |
| CSC(=S)N1CCN(Cc2ccccc2N(C)C)CC1 | 90 to 91 |
| COC(=O)c1cc(C=O)c(C)nc1C1=NC(C)(C(C)C)C(=O)N1 (configuration not stated) | 145 to 146 |
| Cc1ccc(-c2ccc(-c3ccccc3)cc2)n1CC[C@H]1C[C@H](O)CC(=O)O1 (relative stereo) | 104 to 107 |
| CC(=O)NCC=C1CCc2ccc3nc(CCCCc4ccccc4)oc3c21 | 113 to 115 |
| CCOC(=O)C1=C(COCCn2c(C)nc3ccccc32)NC(C)=C(C(=O)NC(C)(C)C)C1c1ccccc1Cl (configuration not stated) | 157 to 161 |
| CN(CCO)c1cccc2c1C(=O)c1c(cccc1N(C)CCO)C2=O | 168 to 178 |
| COc1ccc2ncc3ncn(-c4ccccc4Cl)c3c2c1 | 202 to 205 |
| O=C1Cc2ccccc2C=Cc2c(Cl)cccc21 | 151 to 153 |
| COC(=O)[C@H](Cc1ccc(O)cc1)NC(=O)Cc1ccccc1 | 101 |
| CCC1C(C)=NN=C(c2ccc(O)c(OC)c2)c2cc(OC)c(OC)cc21 (configuration not stated) | 130 to 132 |
| NS(=O)(=O)c1cccc(NC(=O)c2cnn3c(C(F)F)cc(-c4ccc(C(F)(F)F)c(OCC(F)(F)F)c4)nc23)c1 | 241 |
| O=C(CN(C(=O)CCl)C1Cc2ccccc2C1)OCc1ccccc1 | 99.5 to 100 |
| Cc1cc(=O)c2ccc(OCCCCl)cc2o1 | 113 to 115 |
| NS(=O)(=O)c1cnc(-c2cn(-c3nc(-c4ccc(C(F)(F)F)cc4)cc(C(F)(F)F)n3)cn2)s1 | 264 |
| O=C(c1cccc2cc[nH]c12)N1CCN(c2cccc(C(F)(F)F)c2)CC1 | 147 to 151 |
| COc1cc2[nH]c(S(=O)Cc3nccc(N4CCOCC4)c3F)nc2cc1C (configuration not stated) | 185 to 186 |
| CC1(C)OC(C(F)(F)F)Nc2ccc(-c3cccc(Cl)c3)cc21 (configuration not stated) | 108 to 109 |
| Clc1ccc(-c2cc(-c3ccccc3)c(-c3ccccc3)s2)cc1Cl | 101 to 103 |
| CC(Cc1ccccc1)(C(=O)NO)S(=O)(=O)c1cccs1 (configuration not stated) | 116 to 117 |
| C=CCCC(=O)N1C(=O)OC[C@@H]1C(C)C | 119 to 120 |
| CCNCC1CCN(c2c(F)cc3c(=O)c(C(=O)O)cn(C4CC4C)c3c2F)C1 (configuration not stated) | 225 to 228 |
| CCOC(=O)c1cn(-c2ccc(Oc3ccccc3)cc2)cn1 | 113 to 114 |

| Structure (SMILES) | melting point [°C] |
| --- | --- |
| O=C(O)C(O)c1cccc(OCc2ccccc2Cl)c1OCc1ccccc1Cl (configuration not stated) | 98 to 100 |
| CC(COc1cccc(=O)n1O)CC(C)(C)C (configuration not stated) | 134 |
| Nc1cc(-c2noc(-c3cnn4ccc(-c5ccc(C(F)(F)F)cc5)nc34)n2)ccn1 | 250 |
| COC(=O)N1C2CC3CC(C2)CC1C3 | 88 |
| Cc1c(-c2ccc(O)cc2)n(Cc2ccc(OCCN3CCCCCC3)cc2)c2ccc(O)cc12 | 168 to 171 |
| NS(=O)(=O)c1ccc(-n2nc(C(F)F)cc2-c2nc3ccc(F)cc3s2)cc1 | 255 |
| CCOCc1nc2c(N)nc3cc(OCCN4CCOCC4)ccc3c2n1CC(C)(C)O | 161 to 163 |
| CC(=O)c1ccc(S(=O)(=O)NCCN2CCOCC2)cc1 | 128 to 129 |
| CSc1c(C)c(-c2ccc(Cl)cc2Cl)nn1C | 65 to 66 |
| N#CCCNC(=O)C1CC(CF)(CF)Oc2ccc([N+](=O)[O-])cc21 (configuration not stated) | 137 to 138 |
| CCCC(=O)Nc1nc2ccccc2n2c(CC)nnc12 | 185 to 187 |
| COCc1nc(N)nc(SC)n1 | 134 to 136 |
| O=[N+]([O-])c1c(NCC23CCCN2CCC3)cnc2ccccc12 | 95 to 99 |
| Brc1ccc(-c2coc(-c3ccccn3)n2)cn1 | 85 |
| CCCCC(O)CN1N=CCCC1c1ccc(Cl)c(Cl)c1 (configuration not stated) | 80 to 81 |
| O=C(c1ccccc1)c1nc(Br)c2n1CCC2C(=O)O (configuration not stated) | 190 to 192 |
| O=C(c1ccccc1)n1c(=O)[nH]cc(F)c1=O | 170 |
| C#Cc1cc(Oc2cnc(N)nc2N)c(C#C)cc1OC | 163 to 164 |
| O=C(O)c1coc(Cl)c1 | 124 to 125 |
| COc1cc(Cc2cnc(N[N+](=O)[O-])[nH]c2=O)ccn1 | 194 to 196 |
| CCCc1nc2sc3c(NCc4cccnc4)ncnc3c2c2c1COC(C)(C)C2 | 259 to 260 |
| CCCCCCCCCCCCCCCCNc1cc(O)ccc1OCC | 88 to 90 |
| O=C1N(CC2CCCO2)c2cc(F)ccc2C12COc1cc3c(cc12)CCO3 (configuration not stated) | 137 to 139 |
| O=S1(=O)c2cc(C=C(c3ccccc3)c3ccccc3)ccc2N(c2ccccc2)c2ccc(C=C(c3ccccc3)c3ccccc3)cc21 | 269 to 274 |
| CN(C)CC(=Cc1ccc(/C=C/C(=O)O)cc1)O[Si](C)(C)C(C)(C)C | 207 |
| CCOC(=O)n1ccc2cc(N)ccc21 | 113 to 114 |

| Structure (SMILES) | melting point [°C] |
| --- | --- |
| CN1CCN(c2nn(C(=O)c3ccccc3)c3ccc(Cl)cc23)CC1 | 105 to 107 |
| CC(=O)OC1CCC2(C)C(=CCC3C2CCC2(C)C(n4ncnn4)=CCC32)C1 (configuration not stated) | 155 to 156 |
| COC(=O)C(=O)c1ccc(OCCOc2ccc3ccccc3c2)c(Cl)c1 | 133 to 134 |
| COC(=O)c1cncn1C1c2ccccc2C(=O)CC1(C)C (configuration not stated) | 93 to 95 |
| COCOc1ccc(CCCO)c(Oc2ncc(C(F)(F)F)cc2Cl)c1 | 92.5 to 93.5 |
| CCOC(=O)Nc1ccn2cc(C)nc2c1Br | 137 to 138 |
| O=C(c1ccc(Br)cc1)N(C1CCCCC1)C1CCCC1 | 110 to 112 |
| CCCC1(CC(=O)O)OCCc2c1[nH]c1c(C)ccc(C(=O)NC)c21 (configuration not stated) | 89 to 91 |
| CCOC(=O)CN(CP(=S)(Oc1ccccc1)Oc1ccccc1)C(=O)C(F)(F)F | 50 to 52 |
| N#CC1(c2ccc(F)cc2)C=CC(N2CCN(c3cccnn3)CC2)CC1 (configuration not stated) | 189 |
| CCOC(=O)/C=C/c1cccc(Br)c1 | 26 to 28 |
| NC(=O)N1CCN(CC(=O)N2CCOCC2)CC1 | 165 |
| COc1cc(=O)c2c([nH]c1=O)CC(Cl)C(Cl)C2 (configuration not stated) | 229 to 230 |
| CCOCOc1cc(F)ccc1-c1cc(-c2cccc([N+](=O)[O-])c2)c(C#N)c(NC(=O)c2cccs2)n1 | 166 to 167 |
| O=C1COc2cc(NC(=O)C(=O)O)ccc2N1 | 232 to 236 |
| O=C(CSC1c2ccccc2COc2ccc(OCc3ccc4ccc(Cl)cc4n3)cc21)NS(=O)(=O)c1ccccc1 (configuration not stated) | 130 to 135 |
| N[C@@H](CO)C(=O)Nn1cccc1 | 135 to 137 |
| OCc1c(-c2ccccc2)nn2c1-c1ccccc1CC2 | 185 to 187 |
| CC(=CCc1c(O)c(C)c2c(c1OS(=O)(=O)c1ccc(C)cc1)C(=O)OC2)CCC(=O)O | 148 to 149 |
| CNS(=O)(=O)c1cc(Cl)sc1C(=O)O | 103 to 104 |
| COC(=O)c1ccc(CC23CCCN2C(=O)N(c2cc(Cl)c(O)c(Cl)c2)C3=O)cc1 (configuration not stated) | 105 |
| C=C(C)c1cc(NC(=O)N2CCN(c3cc(OC)cc(OC)c3)CC2)c(OC)nc1C | 83 to 85 |
| CCOC(=O)Cn1nc(-c2cc(C(C)(C)C)c(O)c(C(C)(C)C)c2)c2cccnc21 | 117 to 120 |
| CN(C)CCCC#Cc1cnc(NC(=O)OC(C)(C)C)nc1 | 119 to 120 |
| Cc1cc(Oc2ccc([N+](=O)[O-])c(C(F)(F)F)c2)n[nH]1 | 96 to 98 |
| CCCCCCCCCCCCC#CCO | 36 to 37 |

| Structure (SMILES) | melting point [°C] |
| --- | --- |
| Cc1nc(Nc2ccccc2)sc1-c1ccc(Cl)c([N+](=O)[O-])c1 | 162 to 165 |
| Cc1[nH]c(C(N)=O)c(C)c1-c1ccnc(Nc2ccc(F)cc2)n1 | 93.5 to 96.8 |
| CCOCc1nc2c(N)nc(C)c(C)c2n1CCC1CCN(C(=O)C(C)C)CC1 | 168 to 169 |
| O=C(NO)[C@H]1CN(C(=O)NC2CCCCC2)CCN1S(=O)(=O)c1ccc(-c2ccc(F)cc2)s1 | 111 to 123 |
| Cc1cccc(C(O)c2ccc(N)cc2)n1 (configuration not stated) | 165 to 166 |
| CON(Cc1nc2c(N)nc3cc(OCc4ccccc4)ccc3c2n1CC1CCOCC1)S(C)(=O)=O | 195 to 197 |
| O=C(O)c1cc2c(=O)n(-c3ccccc3)c3ccccc3n2c1 | 304 to 306 |
| CCCCCCCCCCCCc1c(C(=O)OCC)[nH]c(C)c1C | 70 to 71 |
| COc1ccccc1N1CCN(CCCNc2ccc(F)cc2)CC1 | 79 to 80 |
| O=P(Oc1cccc(OP(=O)(c2ccccc2)c2ccccc2)c1)(c1ccccc1)c1ccccc1 | 130 |
| CC1=CC(C)(C)OC(c2nsc3ccc(-n4c(=O)cc(C(F)(F)F)n(C)c4=O)cc23)C1 (configuration not stated) | 88 to 92 |
| CC(C)(C)OC(=O)NCC1(CC#N)CCCCC1 | 54 to 58 |
| Cc1ccc(-c2c(-c3ccncc3)nc(-c3c(Cl)cccc3Cl)n2C)cc1 | 214 to 217 |
| CC[C@H](C)Nc1cc(C(=O)OC)cc(NS(C)(=O)=O)n1 | 119 to 123 |
| O=c1oc2cc(Cl)cnc2n1CCl | 105 to 107 |
| COc1ccc2c(c1)CC(C)C1C2C(C)CC2(C)C(O)CCC12 (configuration not stated) | 130 to 131 |
| Cc1ccc(Cl)cc1NS(=O)(=O)c1cc(S(=O)(=O)Nc2cc(Cl)ccc2C)c2ccccc2c1 | 125 to 127 |
| Cc1nc(Br)sc1C(=O)NCc1ccccc1 | 92 to 94 |
| CN(C)C1C(O)CC2C3CCc4cc(O)ccc4C3CCC21C (configuration not stated) | 240 to 242 |
| CN1CCc2c(c3ccccc3n2CCC(=O)NN)C1 | 123 to 124 |
| O=C(/C=C/c1ccc(C(F)(F)F)cc1-c1ccncc1)Nc1ccc2[nH]ccc2c1 | 229 to 234 |
| O=C(NC(=S)NC1Cc2ccccc2C1)c1ccccc1 | 130 to 135 |
| N#Cc1ccc(N2CCC[C@H]2C(N)=O)c2ccccc12 | 177 to 178 |
| CCn1nnc(C(C=CC=O)=C(c2ccc(F)cc2)c2ccc(F)cc2)n1 | 117 to 120 |
